Key:
Type in all cases: in vivo
[1] = system: Botrytis cinerea; experiment: Test F: tomato botrytis, preventive spray on tomato seedlings, visual disease rating; conditions: for pest or weed control at 200 ppm: Botrytis cinerea, 120 h
Method in brief: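 Tomato seedlings sprayed to run-off with compound suspended in acetone/water (50/50) plus 250 ppm Trem 014, at 200 ppm (≈500 g/ha) or 40 ppm where marked. Inoculated next day with B. cinerea spores, 48 h saturated atmosphere at 20 °C, then 3 days at 24 °C. Visual rating, 0–100% disease control relative to controls.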

[2] = system: Plasmopara viticola; experiment: Test H: grape downy mildew, spray after inoculation of grape seedlings, visual disease rating
From the text: (§1) General protocol for preparing test suspensions for Tests A-H: The test compounds were first dissolved in acetone in an amount equal to 3% of the final volume and then suspended at the desired concentration (in ppm) in acetone and purified water (50/50 mix) containing 250 ppm of the surfactant Trem® 014 (polyhydric alcohol esters). The resulting test suspensions were then used in tests A-H. Spraying a 200 ppm test suspension to the point of run-off on the test plants was the equivalent of a rate of 500 g/ha.
Grape seedlings were inoculated with a spore suspension of Plasmopara viticola (the causal agent of grape downy mildew) and incubated in a saturated atmosphere at 20° C. for 24 h. After a short drying period, the test suspension was sprayed to the point of run-off on the grape seedlings, and then moved to a growth chamber at 20° C. for 6 days, after which time the test units were placed back into a saturated atmosphere at 20° C. for 24 h. Upon removal, disease ratings were visually made.
(§2) Results for Tests A-H are given in Table A. In the table, a rating of 100 indicates 100% disease control and a rating of 0 indicates no disease control (relative to the controls). A dash (-) indicates no test results. All results are for compounds tested at 200 ppm except where the compound number is followed by “*” which indicates the compound was tested at 40 ppm.

[3] = system: Septoria nodorum; experiment: Test D: wheat glume blotch, preventive spray on wheat seedlings, visual disease rating; conditions: for pest or weed control at 200 ppm: Parastagonospora nodorum, 216 h
Method in brief: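 Compounds in 3% acetone, then 50/50 acetone–water with 250 ppm Trem 014, sprayed to run-off at 200 ppm (500 g/ha; some at 40 ppm) one day before spore inoculation. Held 48 h saturated at 20 °C, then 7 days at 20 °C; visual rating as % disease control vs untreated (0–100).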

[4] = system: Erysiphe graminis f. sp. tritici; experiment: Test A: wheat powdery mildew, preventive spray on wheat seedlings, visual disease rating; conditions: for pest or weed control at 200 ppm: Blumeria graminis, 192 h
Method in brief: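 Acetone/water (50/50) suspension with 250 ppm surfactant sprayed to run-off on wheat seedlings (200 ppm ≈ 500 g/ha); inoculated next day with E. graminis spore dust. Incubated 8 days at 20° C, then visually rated 0–100% disease control versus untreated controls; tests at 200 ppm or 40 ppm.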

[5] = system: Puccinia recondite f. sp. tritici; experiment: Test B: wheat leaf rust, preventive spray on wheat seedlings, visual disease rating; conditions: for pest or weed control at 200 ppm: 192 h
Method in brief: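 Wheat seedlings were sprayed to run-off with compound suspension, 200 ppm (≈500 g/ha) or 40 ppm where marked, containing surfactant in acetone/water. Inoculation with Puccinia recondita spores followed one day later, then 24 h in saturated humidity at 20° C and 7 days at 20° C. Disease control was rated visually, 0–100% versus controls.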

[6] = system: Rhizoctonia oryzae; experiment: Test G: turf brown patch, preventive spray on creeping bent grass seedlings, visual disease rating; conditions: for pest or weed control at 200 ppm: Waitea circinata, in Agrostis stolonifera, 120 h
From the text: as §1
The test suspension was sprayed to the point of run-off on creeping bent grass seedlings. The following day the seedlings were inoculated with a spore suspension of Rhizoctonia oryzae (the causal agent of turf brown patch) and incubated in a saturated atmosphere at 27° C. for 48 h, and then moved to a growth chamber at 27° C. for 3 days, after which time disease ratings were visually made.
as §2

[7] = system: Alternaria solani; experiment: Test E: tomato early blight, preventive spray on tomato seedlings, visual disease rating; conditions: for pest or weed control at 200 ppm: Alternaria solani, 168 h
Method in brief: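 Seedlings sprayed to run-off with compound in acetone/water plus 250 ppm Trem 014 (200 ppm ≈ 500 g/ha), inoculated with spores next day. Held 48 h saturated at 27 °C, then 5 days at 20 °C; visual rating 0–100% disease control relative to controls.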

[8] = system: Septoria tritici; experiment: Test C: wheat leaf blotch, preventive spray on wheat seedlings, visual disease rating
Method in brief: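 Wheat seedlings sprayed to run-off with compound in acetone/water plus 250 ppm surfactant at 200 ppm (≈500 g/ha), or 40 ppm where marked; inoculated with Septoria tritici next day. Held saturated at 20 °C for 48 h, then 19 days at 20 °C; disease control rated visually 0–100 versus controls.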

[9] = 200 ppm, 100 = 100% disease control, 0 = no control
[10] = 40 ppm (compound number followed by *)

| SMILES | Test F rating (% disease control) [1, 9] | Test H rating (% disease control) [2, 9] | Test D rating (% disease control) [3, 9] | Test A rating (% disease control) [4, 9] | Test B rating (% disease control) [5, 9] | Test G rating (% disease control) [6, 9] | Test E rating (% disease control) [7, 9] | Test C rating (% disease control) [8, 9] | further results |
| --- | --- | --- | --- | --- | --- | --- | --- | --- | --- |
| CCOC(=O)c1cnc(C)c(-c2ccccc2)c1-c1cc(F)cc(F)c1 [Compound 8] | 0% | 17% | 0% | 98% | 0% | 0% | 0% | 0% |  |
| CCOC(=O)c1cnc(C)c(-c2ccccc2F)c1-c1cc(OC)cc(OC)c1 [Compound 20] | 99% | 53% | 0% | 98% | 90% | 0% | 0% | 100% |  |
| COc1cc(OC)cc(-c2c(-c3ccc(F)cc3)c(C)nc(Cl)c2C2CCCC2)c1 [Compound 49, 2-chloro-3-cyclopentyl-4-(3,5-dimethoxyphenyl)-5-(4-fluorophenyl)-6-methylpyridine] |  |  |  |  |  |  |  |  | pest or weed control at 200 ppm [1, 9]: 0%; pest or weed control at 200 ppm [3, 9]: 0%; pest or weed control at 200 ppm [4, 9]: 0%; pest or weed control at 200 ppm [5, 9]: 0%; pest or weed control at 200 ppm [6, 9]: 0%; pest or weed control at 200 ppm [7, 9]: 16% |
| COc1cc(OC)cc(-c2c(C(C)(C)O)cnc(C)c2-c2ccccc2F)c1 [Compound 18] | 97% | 0% | 0% | 98% | 99% | 47% |  | 100% |  |
| COc1cc(OC)cc(-c2c(C(C)(C)O)c[n+]([O-])c(C)c2-c2ccccc2)c1 [Compound 52] | 0% | 0% | 0% | 25% | 0% | 0% | 0% |  |  |
| COc1cc(OC)cc(-c2c(C(C)C)cnc(C)c2-c2c(F)cccc2F)c1 [Compound 45] | 100% |  | 0% | 99% | 100% | 99% | 94% | 100% |  |
| CCOC(=O)c1cnc(C)c(-c2ccccc2)c1-c1cc(OC)ccc1F [Compound 15] | 96% | 0% | 0% | 82% | 0% |  | 0% | 7% |  |
| COc1cc(OC)cc(-c2c(C(C)(C)O)cnc(C)c2-c2c(F)cccc2F)c1 [Compound 42] | 97% | 0% | 98% | 100% | 100% | 86% |  | 100% |  |
| COc1cc(OC)cc(-c2c(C3CCCC3)cnc(C)c2-c2ccc(F)cc2)c1 [Compound 50, 5-cyclopentyl-4-(3,5-dimethoxyphenyl)-3-(4-fluorophenyl)-2-methylpyridine] |  |  |  |  |  |  |  |  | pest or weed control at 200 ppm [1, 9]: 97%; pest or weed control at 200 ppm [3, 9]: 60%; pest or weed control at 200 ppm [4, 9]: 92%; pest or weed control at 200 ppm [5, 9]: 99%; pest or weed control at 200 ppm [6, 9]: 98%; pest or weed control at 200 ppm [7, 9]: 100% |
| CCc1ncc(C(C)=O)c(-c2cc(OC)cc(OC)c2)c1-c1ccccc1 [Compound 27] | 99% | 0% | 0% | 98% | 80% |  | 92% | 100% |  |
| C=C(C)c1cnc(C)c(-c2c(F)cc(F)cc2F)c1-c1cc(OC)cc(OC)c1 [Compound 43] | 100% |  | 78% | 100% | 100% | 100% | 100% | 100% |  |
| CCc1ncc(C(C)C)c(-c2cc(OC)cc(OC)c2)c1-c1ccccc1 [Compound 30] | 99% | 0% | 0% | 98% | 80% |  | 0% | 100% |  |
| CCOC(=O)c1cnc(C)c(-c2ccccc2)c1-c1cc(OC)cc(OC)c1Cl [Compound 25] |  |  |  |  |  |  |  |  | Test F rating (% disease control) [1, 10]: 84%; Test H rating (% disease control) [2, 10]: 0%; Test D rating (% disease control) [3, 10]: 0%; Test A rating (% disease control) [4, 10]: 0%; Test B rating (% disease control) [5, 10]: 0%; Test E rating (% disease control) [7, 10]: 0%; Test C rating (% disease control) [8, 10]: 0% |
| COc1cc(OC)cc(-c2c(C3=CCCCC3)cnc(C)c2-c2ccc(F)cc2)c1 [Compound 46] | 98% |  | 0% | 81% | 95% | 0% | 31% |  |  |
| COc1cc(OC)cc(-c2c(C(C)C)cnc(C)c2-c2c(F)cc(F)cc2F)c1 [Compound 48] |  |  |  |  |  |  |  |  | Test F rating (% disease control) [1, 10]: 98%; Test D rating (% disease control) [3, 10]: 0%; Test A rating (% disease control) [4, 10]: 98%; Test B rating (% disease control) [5, 10]: 100%; Test G rating (% disease control) [6, 10]: 100%; Test E rating (% disease control) [7, 10]: 99% |
| COc1cc(OC)cc(-c2c(C3CCCCC3)cnc(C)c2-c2ccc(F)cc2)c1 [Compound 47] | 96% |  | 0% | 91% | 97% | 99% | 67% |  |  |
| COc1cc(OC)cc(-c2c(C(C)C)cnc(C)c2-c2ccccc2F)c1 [Compound 21] | 98% | 40% | 0% | 100% | 99% |  | 97% | 100% |  |
| CCOC(=O)c1cnc(C)c(-c2ccc(F)cc2)c1-c1cc(OC)cc(OC)c1 [Compound 11, ethyl 4-(3,5-dimethoxyphenyl)-5-(4-fluorophenyl)-6-methyl-3-pyridinecarboxylate] |  |  |  |  |  |  |  |  | pest or weed control at 200 ppm [1, 9]: 0%; pest or weed control at 200 ppm ([2]; Plasmopara viticola, 192 h, 200 ppm, 100 = 100% disease control, 0 = no control): 0%; pest or weed control at 200 ppm [3, 9]: 0%; pest or weed control at 200 ppm [4, 9]: 98%; pest or weed control at 200 ppm [5, 9]: 0%; pest or weed control at 200 ppm [7, 9]: 0%; pest or weed control at 200 ppm ([8]; Zymoseptoria tritici, 504 h, 200 ppm, 100 = 100% disease control, 0 = no control): 30% |

From patent publication US20110092544A1, “FUNGICIDAL PYRIDINES” (E.I. DU PONT DE nemours and company, priority 2008, published 2011)
